Measurements taken from US11191291B2, “Compositions for taste masking” (International Flavors & Fragrances Inc., priority 2016, dated 2021).

Assay: Sensory panel ranking of lingering aftertaste masking on a 0-5 scale (Example III)
Type: in vivo
Conditions: for Masking Effect: scale of 0-5, 0=no masking, 5=very strong masking; for Taste compared with the control: αG SWEET 0.14% solution, water used in control group, concentration series
Description: A solution of αG SWEET was prepared in water at a concentration of 0.14%. The Emblica officinalis fruit extract (prepared as above in Example I) containing the mucic acid 2-O-gallate (11.84%) and mucic acid lactone gallate (6.35%) mixture, individual fractions containing each of mucic acid 2-O-gallate, mucic acid lactone gallate, galloyl glucose (prepared in Example I) and mucic acid 3-O-gallate (Quality Phytochemicals, LLC, New Jersey, U.S.) were added to the αG SWEET solution, respectively, to achieve a series of concentrations ranging from about 50-80 ppm for the Emblica officinalis fruit extract; about 5-20 ppm for mucic acid 2-O-gallate; about 5-20 ppm for mucic acid 3-O-gallate; about 2-10 ppm for mucic acid lactone gallate; and about 10-20 ppm for galloyl glucose. Water was used in a control group. Samples were presented in a blind and pseudorandom order to a sensory panel. The lingering aftertaste-masking effect was evaluated by ranking the suppression of bitterness, metallic aftertaste and lingering sweetness on a scale of 0-5, where 0=no masking and 5=very strong masking.

[1] = 20 ppm in αG SWEET 0.14% solution

Molecule	Masking Effect [1]	Taste compared with the control	Masking Effect (10 ppm in αG SWEET 0.14% solution)
O=C(OC(C(=O)O)C(O)C(O)C(O)C(=O)O)c1cc(O)c(O)c(O)c1 (centres unmarked) [Mucic acid 2-O-gallate, mucic acid 2-O-gallate]	1	tasted considerably less bitter and the lingering metallic off-note was reduced	–
O=C(OC(C(=O)O)C1OC(=O)C(O)C1O)c1cc(O)c(O)c(O)c1 (centres unmarked) [Mucic acid lactone gallate, mucic acid lactone gallate]	–	tasted considerably less bitter and the lingering metallic off-note was reduced	2
galloyl glucose [reference compound]	0	very low effect	–
O=C(OC(C(O)C(=O)O)C(O)C(O)C(=O)O)c1cc(O)c(O)c(O)c1 (centres unmarked) [Mucic Acid 3-O-Gallate, mucic acid 3-O-gallate]	1	tasted considerably less bitter and the lingering metallic off-note was reduced	–
